Measurements published in patent publication US20140350111A1, “METHODS FOR TREATMENT AND PROPHYLAXIS AGAINST HEMORRHOIDS” (priority 2011, published 2014).
Where two headings read alike, the source gives them in different places.

Assays:
[1] = three individuals; 660 mg at first noticeable symptom, then 440 mg three times daily at six-hour intervals
Protocol: After completing treatment in Example 1, three of the individuals at risk for hemorrhoids were treated at the onset of hemorrhoid symptoms to determine whether naproxen could halt or reverse the progression of the hemorrhoid symptoms.

[2] = one individual; 220 mg every day

SMILES: COc1ccc2cc([C@H](C)C(=O)O)ccc2c1 [naproxen sodium]
- progression of emerging hemorrhoid symptoms [1]: symptoms did not worsen
- time to complete disappearance of all symptoms of hemorrhoids from commencement of treatment [1]: 12 to 24 h
- hemorrhoid symptoms after treatment, as reported by individuals (440 mg three times daily at six-hour intervals, the one remaining individual): significant improvement in symptoms
- hemorrhoid symptoms after treatment, as reported by individuals (five individuals, 440 mg three times daily at six-hour intervals until symptoms abated, all treated individuals except one): complete lack of hemorrhoid symptoms after treatment
- occurrence of emerging hemorrhoid symptoms under prophylaxis [2]: has not experienced any emerging hemorrhoid symptoms
